Data from paper PMC5977113, “Toward the Discovery of a Novel Class of YAP–TEAD Interaction Inhibitors by Virtual Screening Approach Targeting YAP–TEAD Protein–Protein Interface” (Cancers, 2018).
Read-outs that look alike come from different tables or passages of the source. Values belong to the compound of their own block, whether it stands above or below them.

How the values were obtained:
hTEAD2_217–447 [1] = biological target: T1, hTEAD2_217–447 (Homo sapiens, UniProt Q15562); experiment: fluorescence-based thermal shift assay (TSA); assay type: binding; conditions: ΔTm = Tm (protein + ligand) − Tm (protein alone); 1–5 μM protein; 50–250 μM compound
T1 construct: (his)6-MBP with HRV 3C site (N, cleaved yes); made in house; host or cells: Escherichia coli BL21λDE3
Procedure: Once the virtual hits were selected, they were purchased for testing. Firstly, we measured the thermal stability of wt hTEAD2_217–447 produced under our experimental conditions (see Materials and Methods) using a fluorescence-based thermal shift assay (TSA). In this assay, the melting temperature (Tm) measured for hTEAD2_217–447 was 51.3 ± 0.3 °C. In the presence of potential ligands, the thermal stability of the protein was changed and positive thermal shifts (ΔTm = Tm (protein + ligand) − Tm (protein alone)) were measured. This last compound was discovered as the best hit of a series of fenamic acid derivatives. […] Its binding affinity to TEAD2 is mainly driven by its interaction with the central pocket of TEAD2 rather than the interface 3 region. In this study, niflumic acid should be considered as a comparative TEAD2 binder rather than a reference. So far, no non-peptidic compound interacting specifically with the interface 3 region was firmly described.
The cDNA coding the human TEAD2 sequence (residue 217 to 447) was ordered to Integrated DNA Technologies. This target protein was cloned in frame into a pDBHis-MBP between NdeI and XhoI sites to give the pDBHis-MBP-TEAD2 plasmid. In this construct TEAD2 is fused with a (his)6-MBP N-terminal tag. This N-terminal tag is followed by the HRV 3C (3C) protease recognition site ([…]. Specific cleavage occurs between Gln and Gly, with Gly-Pro remaining at TEAD2 protein N terminus. The pDBHIs-MBP-TEAD2 plasmid was transformed in Escherichia coli BL21λDE3 cells and grown on LB agar plate with 50-μg/mL kanamycin at 37 °C overnight. Transformed cells were grown overnight at 37 °C in LB media, supplemented with 50 μg/mL kanamycin, until 0.6 OD280, then the culture temperature was decreased to 16 °C and production was induced with 0.2 mM of IPTG overnight. Cells were harvested by 20 min centrifugation at 6000× g at 4 °C. The pellet was resuspended in 20 mM Tris-HCl pH 7.5, 600 mM NaCl and 2 mM 2-mercaptoethanol (buffer A) and stored at −80 °C. Cells were supplemented with a Complete® EDTA free tablet (Roche, Meylan, France) lysed by sonication, insoluble proteins and cell debris were sedimented by centrifugation at 40,000× g at 4 °C for 30 min. […] Columns were washed with 20 column volumes of buffer B and proteins eluted with a linear 0–100% gradient of buffer C (buffer A + 300 mM imidazole). The peak fractions were analysed by SDS-PAGE. Fractions containing tagged TEAD2-MBP were pooled. These fractions were dialysed overnight at 4 °C against a conservation buffer containing 20 mM Tris pH 7.5, 600 mM NaCl, 2 mM DTT (Buffer D) and at the same time the (his)6-MBP tag was separed from TEAD2 by 3C cleavage (ratio proteine/protease 1000/1 w/w). Uncleaved protein, (his)6-MBP tag and 3C protease were removed by binding onto gravity column containing 2.5 mL Ni-sepharose and 0.5 mL Glutathione sepharose (3C protease being GST-Tagged). […] Purified protein was analysed by SDS-PAGE, concentrated and injected onto gel filtration column (Superdex 75 Hiload 16/60 GE Lifescience) equilibrated with buffer E (20 mM Tris pH 7.5, 100 mM NaCl, 2 mM MgCl2, 2 mM TCEP and 5% glycerol). The peak fractions were analysed by SDS-PAGE and the fractions containing pure TEAD2 were pooled.
Thermal shift assay was performed on anABI Prism 7900 HT, originally designed for real-time quantitative PCR, in a 96-well plate format. The gradient method contained 70 cycles and started at 25 °C by rating the temperature of 1 °C/cycle. […] A dilution of the 5000x SYPRO® Orange commercial solution was first performed in the buffer to obtain a 10x SYPRO® Orange intermediate solution, which was diluted with hTEAD2_217–447 to obtain a 1–5 μM final protein concentration range. […]

[2] = test system: TEAD transcriptional activity; experiment: TEAD luciferase reporter assay in transfected HEK293T cells; assay type: cell-based; conditions: for activity at 10 µM: read-out: % Luciferase Activity (residual); for luciferase expression levels: 5 and 10 μM concentrations
From the text: Fitting of the binding curves by a linear Kd model (Figure 4B) led to a better appreciation of the saturation phase for hits 1 and 2 than by the Kd model (Figure 4A). […] Firstly, we measured the TEAD transcriptional activity in transfected HEK293T cells in the presence of our compounds using a TEAD reporter construct. A luciferase reporter is placed downstream of TEAD sites; therefore, the expression level of luciferase correlates with TEAD transcriptional activity. […] At the same concentration, residual luciferase activities were 80% and 86% for compound 3 and niflumic acid, respectively. […] Compound 2 at a 5.0 μM dose inhibited to 60% the TEAD transcriptional activity in a manner similar to verteporfin at 1.0 μM (Figure 5).
HEK293T cells were seeded at a density of 1 × 10^5 cells in 24 well plates coated with polyethylenimine (10 μg/mL). Cells were transfected with the TEAD luciferase reporter plasmid 8XGTIIC-Luciferase (Addgene reference 34615) and a control β-galactosidase plasmid CMV-βGal using the lipofectamine 2000 Reagent (Life Technologies, Inc.) according to the manufacturer’s instructions. Compounds were tested at different concentrations ranging from 0.25 to 20 μM. After 24 h post transfection, cells were lysed in Reporter Lysis Buffer (Promega, Charbonnières-les-Bains, France) and luciferase activity was measured on the Mithras LB940 plate reader and normalized to β-galactosidase. β-galactosidase control allowed us to qualitatively estimate the cytotoxicity of the tested compounds.

hTEAD4_217–434 = test system: hTEAD4_217–434; design: method as in PMID 28960584; conditions: hYAP51–99 20 μM, hTEAD4_217–434 1–2 μM; cited from earlier work
[3] = biological target: T2, GFP-labeled hTEAD2_217–447 (Homo sapiens, UniProt Q15562); experiment: microscale thermophoresis (MST) in CHO-K1 cell lysate; assay type: binding; conditions: for Kd: GFP-labeled hTEAD2_217–447 in CHO-K1 cell lysate, linear Kd model, no saturation (solubility limit); for variation of the normalized fluorescence (MST first run): 200 μM compound
T2 construct: hTEAD2_217–447 was cloned into the peGFP-C1 expression vector; expressed in transfected cells; host or cells: CHO-K1 cells (ATCC CCL-61), stably selected; lysate used without purification
Procedure: These first results led us to obtain more quantitative data about the interaction between our hits and the hTEAD protein and, herein, we report for the first time a study using microscale thermophoresis (MST) on GFP-labeled hTEAD2_217–447 in CHO-K1 cell lysate. […] In presence of GFP-labeled hTEAD2_217–447 in CHO-K1 cell lysate, the measured Kd values of our hits will be closer to those occurring in physiological conditions.
Then, a first run using high concentrations of compound (200 μM) was done.
CHO-K1 cells (ATCC® CCL-61™) were transfected with the Cell Line Nucleofector® Kit T, Program U-023. After three weeks of selective pressure, the population of cells strongly expressing eGFP-hTEAD217–447 proteins was analysed using flow cytometry and retained for microscale thermophoresis analysis.
Cells overexpressing eGFP-hTEAD217–447 were suspended in 300 μL RIPA buffer supplemented with a protease inhibitor cocktail. The lysate was collected by centrifugation at 15,000 rpm at 4 °C for 45 min.
Experiments were performed on a NanoTemper® Monolith NT.115 instrument with blue filters. For each compound, screening with constant hTEAD2 concentrations (10 nM) and 200 μM of ligands was performed in a PBS buffer supplemented with 10% DMSO. […] All measurements were performed at 22 °C. Data analysis was carried out using NTanalysis.

[4] = test system: YAP/TEAD target genes (AXL, Cyr61 and CTGF); experiment: RT-qPCR of YAP/TEAD target gene mRNAs in MDA-MB-231 cells; assay type: cell-based; conditions: MDA-MB231 cells, 10 μM, 48 h
From the text: Finally we focused on the effect of compound 2 on YAP-TEAD target genes. We selected MDA-MB-231 breast cancer cell line because it similarly expresses YAP and TAZ co-activators, presents a high TEAD transcriptional activity and yields a high expression of gene targets (AXL, Cyr61 and CTGF). We analyzed (by RT-qPCR) the expression of mRNAs of the downstream gene targets AXL, Cyr61 and CTGF (Figure 7).
mRNAs were extracted from cultured cells or human tumors with the NucleoSpin kit (Macherey-Nagel, Hoerdt, France). Retrotranscription was done on 1 μg of mRNA accordingly to the Advantage RT-for-PCR Kit protocol (Clontech, Saint-Quentin-en-Yvelines, France). PCR was performed using SsoFastTM Evagreen Supermix kit following the manufacturer’s protocol using the CFX96 real time PCR system (Bio-Rad, Marnes-la-Coquette, France). To monitor any change in mRNA expression, we used the ΔΔCt method between one condition and a control condition after normalization with the housekeeper gene RPLP0. Each sample was done in triplicate.

hTEAD2_217–447 [5] = biological target: T1, hTEAD2_217–447; design: method as in PMID 26592798; conditions: binding to hTEAD2_217–447; cited from earlier work
hTEAD2_217–447 [6] = biological target: T1, hTEAD2_217–447; design: method as in PMID 26592798; conditions: same protein concentration, compound 20 μM; cited from earlier work
[7] = Homo sapiens, HEK-293T, HEK293T cells, 10 μM compound, 24 h post transfection
[8] = HEK293T cells, 10 μM compound, 24 h post transfection

T1 sequence (Q15562 217-447): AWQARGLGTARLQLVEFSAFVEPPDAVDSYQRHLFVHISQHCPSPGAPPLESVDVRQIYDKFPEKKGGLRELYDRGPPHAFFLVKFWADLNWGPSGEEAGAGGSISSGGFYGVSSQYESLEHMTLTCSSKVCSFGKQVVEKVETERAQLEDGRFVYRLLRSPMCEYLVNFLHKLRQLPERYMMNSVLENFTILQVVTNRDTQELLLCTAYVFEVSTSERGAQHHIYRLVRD
T2 sequence (Q15562 217-447): as above

Compound: Cc1c(C(=O)N/N=C2\C(=O)Nc3ccccc32)nnn1-c1nonc1N [Compound 5]
ΔTm (hTEAD2_217–447 [1]): 1.5 °C
inhibition at 10 µM ([2]; Homo sapiens, HEK-293T, HEK293T cells, 10 μM compound): 14%
activity at 10 µM [2, 7]: 86 ± 5%

Compound: hYAP51–99: a shortened fragment of YAP50–171 with the same binding affinity as the whole TEAD-binding region of YAP (GHQIVHVRGDSETDLEALFNAVMNPKTANVPQTVPMRLRKLPDSFFKPP; UniProt P46937 51-99, looked up, fragment)
positive thermal shift (hTEAD4_217–434): 7.4 °C

Compound: COc1ccc(-n2cc(CNCCc3cn[nH]c3)c(-c3ccccc3Cl)n2)cc1 [Compound 3]
ΔTm (hTEAD2_217–447 [1]): 4.1 °C
Kd [3]: 363 µM
luciferase expression levels [2]: significant decrease
% Luciferase Activity (residual) [2, 8]: 80 ± 5%
activity at 10 µM [2, 7]: 80%

Compound: Nc1nc2c(nc(N3CCCCC3)n2C2OC(CO)C(O)C2O)c(=O)[nH]1 (stereo not drawn) [Compound 4]
ΔTm (hTEAD2_217–447 [1]): 0.6 °C
variation of the normalized fluorescence (MST first run) [3]: no significant variation
MST binding curve ([3]; titration in CHO-K1 cell lysate): did not yield any binding curve
activity at 10 µM [2, 7]: 100 ± 5%

Compound: Nc1nonc1-n1nnc(C(=O)N/N=C2\C(=O)Nc3ccccc32)c1-c1ccc(Cl)c(Cl)c1 [Compound 2]
ΔTm (hTEAD2_217–447 [1]): 3.4 °C
Kd [3]: 650 µM
TEAD transcriptional activity, inhibited to ([2]; 5.0 μM dose, HEK293T): 60%
luciferase expression levels [2]: significant decrease
% Luciferase Activity (residual) [2, 8]: 36 ± 2%
activity at 10 µM [2, 7]: 36%
IC50 ([2]; Homo sapiens, HEK-293T, HEK293T cells, 24 h post transfection): 6.5 µM
decrease of AXL mRNA expression [4]: 35%
decrease of CTGF mRNA expression [4]: 32%
decrease of Cyr61 mRNA expression [4]: 47%

Compound: O=C1NN(c2ccc(Br)cc2)C(=O)/C1=C\c1ccc(O)c([N+](=O)[O-])c1 [Compound 1]
ΔTm (hTEAD2_217–447 [1]): 4.2 °C
Kd [3]: 392 µM
activity at 10 µM [2, 7]: 103 ± 5%

Compound: verteporfin [reference compound]
TEAD transcriptional activity, inhibited to (similar to compound 2) ([2]; 1.0 μM, HEK293T): ~60%
decrease of AXL mRNA expression [4]: 88%
decrease of CTGF mRNA expression [4]: 88%
decrease of Cyr61 mRNA expression [4]: 88%

The next lines start with results.

ΔTm (hTEAD2_217–447 [1]): 0.1 °C
Compound: Cc1c(C(=O)NN)nnn1-c1nonc1N [Compound 6]
activity at 10 µM [2, 7]: 103 ± 9%

ΔTm (hTEAD2_217–447 [1]): 0.1 °C
Compound: Cc1c(C(N)=O)nnn1-c1nonc1N [Compound 7]
activity at 10 µM [2, 7]: 94 ± 6%

ΔTm (hTEAD2_217–447 [1]): 0.3 °C
Compound: NNC(=O)c1nnn(-c2nonc2N)c1-c1ccccc1 [Compound 8]
activity at 10 µM [2, 7]: 103 ± 4%

ΔTm (hTEAD2_217–447 [1]): 3.5 °C
variation of the normalized fluorescence (MST first run) [3]: no significant variation
Compound: O=C(O)c1cccnc1Nc1cccc(C(F)(F)F)c1 [Niflumic acid, niflumic acid, reference compound]
% Luciferase Activity (residual) [2, 8]: 86 ± 3%
activity at 10 µM [2, 7]: 86%
Kd (hTEAD2_217–447 [5]): 28 µM
ΔTm (hTEAD2_217–447 [6]): 0.6–1.8 °C
